Measurements as given in patent US10383871B2, “Azetidine derivatives” (Vernalis (R&D) Ltd, priority 2008, dated 2019).

Assay: Plasma concentrations after oral administration in laboratory rats
Assay type: in vivo, rat

| Structure (SMILES) | plasma concentrations after oral administration |
| --- | --- |
| O=C(Nc1cccnc1)N1CC(Oc2ccc(-c3ccccc3)cc2)C1 [Example 4, 3-(Biphenyl-4-yloxy)-azetidine-1-carboxylic acid pyridin-3-ylamide] | high and prolonged plasma concentrations |
| COCCOc1cccc(-c2ccc(OC3CN(C(=O)Nc4cccnn4)C3)nc2)c1 [Example 7, 3-{5-[3-(2-Methoxy-ethoxy)-phenyl]-pyridin-2-yloxy}-azetidine-1-carboxylic acid pyridazin-3-ylamide] | high and prolonged plasma concentrations |
| O=C(Nc1cccnn1)N1CC(Oc2ccc(-c3ccccc3)cn2)C1 [Example 13, 3-(5-Phenyl-pyridin-2-yloxy)-azetidine-1-carboxylic acid pyridazin-3-ylamide] | high and prolonged plasma concentrations |
| COc1ccccc1-c1ccc(OC2CN(C(=O)Nc3cccnn3)C2)nc1 [Example 17, 3-[5-(2-Methoxy-phenyl)-pyridin-2-yloxy]-azetidine-1-carboxylic acid pyridazin-3-ylamine] | high and prolonged plasma concentrations |
| O=C(Nc1cccnn1)N1CC(Oc2ccc(-c3ccccc3F)cn2)C1 [Example 18, 3-[5-(2-Fluoro-phenyl)-pyridin-2-yloxy]-azetidine-1-carboxylic acid pyridazin-3-ylamide] | high and prolonged plasma concentrations |
